Patent publication US10669300B2, “Methods of separating gemcitabine-phosphate diastereoisomers” (NuCana plc, priority 2014, dated 2020)

What was measured:
Solubility in water = assay type: physicochemical; settings: regardless of salt content or pH
Source text: It also has implications for the development of efficient manufacturing processes which will allow NUC-1031 to be produced cost effectively.

[1] = Solvent screening: amounts of the two epimers in solution after slurrying NUC-1031 mixture; assay type: physicochemical; settings: for epimer in solution: 33:67 (R):(S) mixture in 1 mL, stirred overnight
Protocol: First a solvent screening was conducted with 17 different solvents (see Table 1). Approximately 25 mg of a diastereomeric mixture (33:67 (R):(S)) of NUC-1031 was suspended in the listed solvents (1 mL) and stirred overnight. In case dissolution occurred more solid was added. The suspensions were sedimented and the relative amounts of the two diastereoisomers in solution was determined by HPLC.

[2] = Crystallisation optimisation: slurries in acetonitrile and isopropanol, epimers in solution; assay type: physicochemical; settings: 20° C., 200 mg 33:67 (R):(S) mixture
Protocol: The enrichment provided by acetonitrile and isopropanol were evaluated at a range of concentrations and temperatures (see Table 2). Two types of experiments were conducted: simple slurries (20° C.) in different volumes and slurries/recrystallisations at 80° C. For the experiments 200 mg of the diastereomeric mixture (33:67 (R):(S)) was suspended in the solvents and volume indicated below and optionally heated to reflux and cooled to 20° C. The suspensions were stirred overnight and isolated. The relative proportions of the two epimers present in both the solution and in the solid cake were determined by HPLC.

[3] = Solubility in mixtures of polar organic solvents with water; assay type: physicochemical
Source text: It has recently been discovered that the (S)-epimer 3 of gemcitabine-[phenyl-benzoxy-L-alaninyl)]-phosphate has sufficient solubility in mixtures of a number of polar organic solvents with water to render it suitable for formulation and administration as a therapeutic agent. […] In certain solvent mixtures the difference in solubility between the (S)-epimer and the (R)-epimer is over 100 fold. It is expected therefore that more clinically effective, practical and patient friendly administration methods can be developed using the (S)-epimer than can be developed using the (R)-epimer or using the mixture. It is thus desirable to be able to provide gemcitabine-[phenyl-benzoxy-L-alaninyl)]-(S)-phosphate 3 in substantially diastereoisomerically pure form.

[4] = Crystallisation optimisation: slurries in acetonitrile and isopropanol, epimers in solution; assay type: physicochemical; settings: 83° C. (heated to reflux, cooled to 20° C.), 200 mg 33:67 (R):(S) mixture
[5] = test system: isolated human hepatic cells; test: Half-life on incubation with isolated human hepatic cells; assay type: in vitro ADME
Source text: The longer half-life associated with (R)-isomer indicates a lower intrinsic clearance and should result in a different pharmacokinetic and pharmacodynamic profile to the (S)-isomer which may offer some benefits.

Row | SMILES | epimer in solution ([1]; solvent ACN) [mg/mL] | epimer in solution ([1]; solvent EtOAc) [mg/mL] | epimer in solution ([1]; solvent EtOH) [mg/mL] | epimer in solution ([1]; solvent H2O) [mg/mL] | epimer in solution ([1]; solvent IPA) [mg/mL] | epimer in solution ([1]; solvent MEK) [mg/mL] | epimer in solution ([1]; solvent MIBK) [mg/mL] | epimer in solution ([1]; solvent MeOH) [mg/mL] | epimer in solution ([1]; solvent MeTHF) [mg/mL] | epimer in solution ([1]; solvent TBME) [mg/mL] | epimer in solution ([1]; solvent THF) [mg/mL] | epimer in solution ([1]; solvent acetone) [mg/mL] | epimer in solution ([1]; solvent iPrOAc) [mg/mL] | epimer in solution ([1]; solvent nBuOH) [mg/mL] | epimer in solution ([1]; solvent nPrOH) [mg/mL] | epimer in solution ([1]; solvent nheptane) [mg/mL] | epimer in solution ([1]; solvent toluene) [mg/mL] | epimer in solution ([2]; ACN solution, 5 mL) [mg/mL] | epimer in solution ([2]; ACN solution, 10 mL) [mg/mL] | epimer in solution ([2]; ACN solution, 15 mL) [mg/mL] | further results
1 | C[C@H](NP(=O)(OC[C@H]1O[C@@H](n2ccc(N)nc2=O)C(F)(F)C1O)Oc1ccccc1)C(=O)OCc1ccccc1 (stereo partly shown) [NUC-1031] |  |  |  |  |  |  |  |  |  |  |  |  |  |  |  |  |  |  |  |  | solubility in water (Solubility in water): essentially insoluble in water
2 | C[C@H](N[P@](=O)(OC[C@H]1O[C@@H](n2ccc(N)nc2=O)C(F)(F)C1O)Oc1ccccc1)C(=O)OCc1ccccc1 (single isomer, unassigned; epimer 2) [(S)-epimer] | 10.0 | 1.1 | 15.7 | 0.9 | 13.0 | 3.2 | 1.0 | 35.1 | 1.2 | 0.1 | 6.6 | 7.7 | 0.6 | 14.4 | 10.8 | 0.4 | 0.7 | 9.04 | 8.85 | 9.74 | solubility compared with the (R)-epimer ([1]; in all solvents tested): higher solubility; epimer in solution ([2]; IPA solution, 5 mL): 17.75 mg/mL; epimer in solution ([2]; IPA solution, 10 mL): 12.98 mg/mL; epimer in solution ([2]; IPA solution, 15 mL): 7.16 mg/mL; difference in solubility between the (S)-epimer and the (R)-epimer ([3]; in certain solvent mixtures): over 100 fold; epimer in solution ([4]; ACN solution, 5 mL): 11.03 mg/mL; epimer in solution ([4]; ACN solution, 10 mL): 11.00 mg/mL; epimer in solution ([4]; ACN solution, 15 mL): 10.67 mg/mL; epimer in solution ([4]; IPA solution, 5 mL): 18.20 mg/mL; epimer in solution ([4]; IPA solution, 10 mL): 12.83 mg/mL
3 | C[C@H](N[P@@](=O)(OC[C@H]1O[C@@H](n2ccc(N)nc2=O)C(F)(F)C1O)Oc1ccccc1)C(=O)OCc1ccccc1 (single isomer, unassigned; epimer 2) [(R)-epimer] | 1.1 | 0.7 | 4.9 | 0.5 | 1.6 | 0.9 | 0.7 | 22.8 | 0.6 | 0.1 | 3.0 | 2.2 | 0.6 | 1.6 | 2.2 | 0.4 | 0.2 | 0.67 | 0.59 | 0.63 | epimer in solution ([2]; IPA solution, 5 mL): 0.77 mg/mL; epimer in solution ([2]; IPA solution, 10 mL): 0.77 mg/mL; epimer in solution ([2]; IPA solution, 15 mL): 0.58 mg/mL; solubility compared with the (S)-epimer ([3]; mixtures of polar organic solvents with water): considerably lower; half-life relative to that of the (S)-epimer [5]: four times; epimer in solution ([4]; ACN solution, 5 mL): 1.01 mg/mL; epimer in solution ([4]; ACN solution, 10 mL): 1.09 mg/mL; epimer in solution ([4]; ACN solution, 15 mL): 1.19 mg/mL; epimer in solution ([4]; IPA solution, 5 mL): 1.42 mg/mL; epimer in solution ([4]; IPA solution, 10 mL): 3.38 mg/mL
